Test results as given in the supplement of paper PMC10307832.

Columns and labels:
Test in all cases: relative viability (nuclei count vs DMSO), 5 days (fraction); higher = more cells survive
KN-93 + Bortezomib = compound: CN(C/C=C/C1=CC=C(C=C1)Cl)CC2=CC=CC=C2N(CCO)S(=O)(=O)C3=CC=C(C=C3)OC [KN-93] + CC(C)C[C@H](NC(=O)[C@H](Cc1ccccc1)NC(=O)c1cnccn1)B(O)O [Bortezomib] (partner 0.002 µM)
Procedure, shortened: (§1)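 The day after seeding in 1536-well plates, lung cancer cell lines were treated by pin tool with a single drug, or with a fixed anchor-drug dose together with five library-drug doses (not always all listed) in √10 steps. After 5 days, a combined fix-and-stain solution (final 0.05% Triton X-100, 1% formaldehyde, 1 ug/ml Hoechst) was added. Nuclei counted on 4× images gave relative viability as treated counts over vehicle counts, reported as the median of duplicate plates.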

KN-93 + Luminespib = compound: CN(C/C=C/C1=CC=C(C=C1)Cl)CC2=CC=CC=C2N(CCO)S(=O)(=O)C3=CC=C(C=C3)OC [KN-93] + CCNC(=O)c1noc(-c2cc(C(C)C)c(O)cc2O)c1-c1ccc(CN2CCOCC2)cc1 [Luminespib] (partner 0.01 µM)
Procedure, shortened: as §1

KN-93 + Foretinib = compound: CN(C/C=C/C1=CC=C(C=C1)Cl)CC2=CC=CC=C2N(CCO)S(=O)(=O)C3=CC=C(C=C3)OC [KN-93] + COc1cc2c(Oc3ccc(NC(=O)C4(C(=O)Nc5ccc(F)cc5)CC4)cc3F)ccnc2cc1OCCCN1CCOCC1 [Foretinib] (partner 0.25 µM)
Procedure, shortened: as §1

KN-93 + Tozasertib = compound: CN(C/C=C/C1=CC=C(C=C1)Cl)CC2=CC=CC=C2N(CCO)S(=O)(=O)C3=CC=C(C=C3)OC [KN-93] + Cc1cc(Nc2cc(N3CCN(C)CC3)nc(Sc3ccc(NC(=O)C4CC4)cc3)n2)n[nH]1 [Tozasertib] (partner 0.1 µM)
Procedure, shortened: as §1

KN-93 + Vorinostat = compound: CN(C/C=C/C1=CC=C(C=C1)Cl)CC2=CC=CC=C2N(CCO)S(=O)(=O)C3=CC=C(C=C3)OC [KN-93] + O=C(CCCCCCC(=O)Nc1ccccc1)NO [Vorinostat] (partner 1 µM)
Procedure, shortened: as §1

Cell Line | relative viability (KN-93 + Bortezomib; first compound 0.08 µM) | relative viability (KN-93 + Bortezomib; first compound 0.253 µM) | relative viability (KN-93 + Bortezomib; first compound 2.53 µM) | relative viability (KN-93 + Bortezomib; first compound 8 µM) | relative viability (KN-93 + Luminespib; first compound 0.08 µM) | relative viability (KN-93 + Luminespib; first compound 0.253 µM) | relative viability (KN-93 + Luminespib; first compound 2.53 µM) | relative viability (KN-93 + Luminespib; first compound 8 µM) | relative viability (KN-93 + Foretinib; first compound 0.08 µM) | relative viability (KN-93 + Foretinib; first compound 0.253 µM) | relative viability (KN-93 + Foretinib; first compound 2.53 µM) | relative viability (KN-93 + Foretinib; first compound 8 µM) | relative viability (KN-93 + Tozasertib; first compound 0.08 µM) | relative viability (KN-93 + Tozasertib; first compound 0.253 µM) | relative viability (KN-93 + Tozasertib; first compound 2.53 µM) | relative viability (KN-93 + Tozasertib; first compound 8 µM) | relative viability (KN-93 + Vorinostat; first compound 0.08 µM) | relative viability (KN-93 + Vorinostat; first compound 0.253 µM) | relative viability (KN-93 + Vorinostat; first compound 2.53 µM) | relative viability (KN-93 + Vorinostat; first compound 8 µM)
201T | 1.11 | 1.15 | 1.07 | 0.554 | 1.04 | 1.16 | 0.958 | 0.697 | 1.06 | 0.711 | 1.08 | 0.566 | 0.916 | 0.99 | 0.819 | 0.508 | 0.875 | 0.958 | 0.873 | 0.698
A-427 | 1.04 | 0.99 | 0.982 | 0.852 | 1.16 | 1.2 | 0.866 | 0.307 | 1.06 | 1.11 | 1.04 | 0.807 | 0.206 | 0.193 | 0.172 | 0.165 | 0.856 | 0.862 | 0.868 | 0.59
ABC-1 | 0.322 | 0.247 | 0.287 | 0.26 | 0.701 | 0.752 | 0.368 | 0.271 | 0.956 | 1.17 | 0.873 | 0.314 | 0.158 | 0.157 | 0.217 | 0.192 | 0.92 | 1.66 | 0.586 | 0.427
BEN |  | 0.895 | 1.01 | 0.471 | 0.322 | 0.331 | 0.619 | 0.214 | 0.917 | 0.599 | 0.714 | 0.455 | 0.525 | 0.529 | 0.489 | 0.531 | 0.637 | 0.596 | 0.599 | 0.487
CAL-12T | 1.02 | 1.09 | 0.993 | 0.803 | 0.208 | 0.27 | 0.573 | 0.336 | 1.01 | 1.27 | 1.09 | 0.565 | 0.299 | 0.354 | 0.324 | 0.176 | 0.833 | 1.01 | 0.783 | 0.687
COR-L23 | 0.653 | 1.5 | 1.21 | 0.573 | 0.604 | 1 | 0.978 | 0.424 | 0.907 | 1.08 | 1.14 | 0.654 | 0.185 | 0.205 | 0.177 | 0.156 | 0.448 | 0.46 | 0.509 | 0.402
COR-L 105 | 0.798 | 0.836 | 0.914 | 0.378 | 0.765 | 0.869 | 0.675 | 0.739 | 0.987 | 1.05 | 1.02 | 0.73 | 0.399 | 0.325 | 0.329 | 0.282 | 0.632 | 0.824 | 0.551 | 0.836
ChaGo-K-1 | 1.33 | 1.18 | 1.15 | 0.536 | 0.589 | 0.712 | 0.699 | 0.462 | 0.866 | 0.981 | 0.832 | 0.669 | 0.234 | 0.232 | 0.243 | 0.2 | 0.755 | 0.896 | 0.822 | 0.582
EKVX | 0.81 | 1.33 | 1.26 | 0.389 | 0.998 | 0.977 | 0.895 | 0.714 | 0.849 | 0.758 | 0.911 | 0.22 | 0.378 | 0.48 | 0.369 | 0.301 | 0.642 | 0.653 | 0.655 | 0.585
EMC-BAC-2 | 0.908 | 1.12 | 1.12 | 0.58 | 1.07 | 1.27 | 1.18 | 0.901 | 0.962 | 1.05 | 0.938 | 0.752 | 0.24 | 0.276 | 0.274 | 0.274 | 0.51 | 0.534 | 0.399 | 0.345
EPLC-272H | 0.863 | 1.39 | 0.982 | 0.752 | 0.438 | 0.183 | 0.266 | 0.173 | 0.621 | 0.762 | 0.573 | 0.389 | 0.234 | 0.213 | 0.317 | 0.227 | 0.436 | 0.212 | 0.274 | 0.152
H3255 | 0.906 | 0.865 | 0.91 | 0.578 | 0.85 | 0.97 | 0.774 | 0.776 | 0.986 | 0.902 | 0.864 | 0.807 | 0.539 | 0.864 | 0.82 | 0.433 | 0.842 | 0.76 | 0.927 | 0.311
HARA | 1.01 | 1.08 | 1.24 | 0.836 | 0.659 | 1.15 | 0.449 | 0.284 | 0.918 | 1.37 | 0.887 | 0.532 | 0.125 | 0.104 | 0.111 | 0.11 | 0.394 | 0.475 | 0.503 | 0.493
